Test results: patent EP1311531B1, “STEROID DERIVED ANTIBIOTICS” (Brigham Young University, priority 2000, dated 2002)
≈ marks a conversion by molar mass, not a printed value. Like-named read-outs stand apart in the source and are kept apart here. One block for each compound: values may come before it.

Legend:
E. coli (ATCC 10798) = test: Sensitization to erythromycin or novobiocin (outer membrane permeabilization, FIC); format: cell-based, Escherichia coli; settings: for MBC: Escherichia coli; for MBC / concentration required to lower the MIC of erythromycin from 70 µg/mL to 1 µg/mL: E. coli (ATCC 10798); for concentration required to lower the MIC of erythromycin from 70 µg/mL to 1 µg/mL: Table 2
Description: FICs can be performed by checkerboard titrations of compounds in one dimension of a microtiter plate, and of antibiotics in the other dimension, for example. The FIC is calculated by looking at the impact of one antibiotic on the MIC of the other and vice versa. […] Preferably, an FIC of less than 0.5 is obtained for synergism. As used herein, FIC can be determined as follows: FIC = (MIC(compound in combination))/(MIC(compound alone)) + (MIC(antibiotic in combination))/(MIC(antibiotic alone)) [formula]
(§1) Aliquots of 1 mL of the suspension were added to test tubes containing 1 mL TSB and incrementally varied concentrations of cholic acid derivatives and/or erythromycin or novobiocin. In the sensitization experiments, erythromycin or novobiocin were added 15 minutes later than the cholic acid derivatives. The samples were subjected to stationary incubation at 37°C for 24 hours. Sample turbidity was determined by measuring absorption at 760 nm (HP 8453 UV-Visible Chemstation, Hewlett Packard). Additionally, an alliquot from each of the samples showing no measurable turbidity was subcultured on TSA plates (alliquots were diluted to provide fewer than 300 CFU). Colonies that grew on the subculture after overnight incubation were counted and the number of CFU/mL in the samples were calculated. The calculated values were compared to the number of CFU/mL in the original inoculum.
They were also tested for the ability to permeabilize the outer membrane of Gram-negative bacteria, causing sensitization to hydrophobic antibiotics that cannot cross the outer membrane. The permeabilization of the outer membrane was measured using erythromycin and novobiocin.

[1] = test system: Escherichia coli ATCC 25922; test: MIC and MBC measurement; format: cell-based; settings: Escherichia coli; for MIC: read-out: MIC
Text: (§2) General: Microorganisms. Reference strains were purchased from the American Type Culture Collection (Rockville, MD) or Bactrol disks from Difeo Laboratories (Detroit, MI). The following specific ATCC strains were used: 10798 Escherichia coli, 25922 Escherichia coli, 13883 Klebsiella pneumoniae, 27853 Pseudomonas aeruginosa, 14028 Salmonella typhimurium, 29212 Enterococcus faecalis, 25923 Staphylococcus aureus, 19615 Streptococcus pyogenes, and 90028 Candida albicans. Bacterial strains were maintained on Mueller-Hinton agar plates, and Candida albicans was maintained on Sabouraud Dextrose agar plates.
(§3) Tryptic soy broth (TSB) was made by dissolving 27.5 grams of tryptic soy broth without dextrose (DIFCO Laboratories) in 1 liter of deionized water and sterilizing at 121 °C for 15 minutes. Solid agar (TSA) plates were made by dissolving 6.4 grams of tryptic soy broth and 12 grams of agar (purified grade, Fischer Scientific) in 800 mL of deionized water and sterilizing at 121 °C for 20 minutes. Aliquots (20 mL) of the homogeneous solution were then poured in sterile plastic petri dishes (100 x 15 mm, Fisher Scientific). Solutions of compounds were made by dissolving the HCl salt of the respective compound into an appropriate amount of deionized and sterilized water followed by microfiltration.
as §1, with “inoculum. […]” for “inoculum.”

[2] = test system: Staphylococcus aureus ATCC 25923; test: MIC and MBC measurement; format: cell-based; settings: ATCC25923, Table 10, Staphylococcus aureus ATCC 25923; for MIC: read-out: MIC
Text: as §2, §3
as §1, with “inoculum. […]” for “inoculum.”

[3] = test system: Klebsiella pneumonia ATCC 13883; test: MIC and MBC measurement; format: cell-based; settings: Klebsiella pneumoniae, ATCC13883
Description: (§4) General: Microorganisms. Reference strains were purchased from the American Type Culture Collection (Rockville, MD) or Bactrol disks from Difeo Laboratories (Detroit, MI). […] Bacterial strains were maintained on Mueller-Hinton agar plates, and Candida albicans was maintained on Sabouraud Dextrose agar plates.
(§5) Aliquots (20 mL) of the homogeneous solution were then poured in sterile plastic petri dishes (100 x 15 mm, Fisher Scientific). Solutions of compounds were made by dissolving the HCl salt of the respective compound into an appropriate amount of deionized and sterilized water followed by microfiltration.
as §1, with “In the sensitization experiments, erythromycin or novobiocin were added 15 minutes later than the cholic acid derivatives. The samples were subjected to stationary incubation at 37°C for 24 hours. Sample turbidity was determined by measuring absorption at 760 nm (HP 8453 UV-Visible Chemstation, Hewlett Packard).” left out

[4] = test system: Pseudomonas aeruginosa ATCC 27853; test: MIC and MBC measurement; format: cell-based
Description: as §4, §5
as §1, with “In the sensitization experiments, erythromycin or novobiocin were added 15 minutes later than the cholic acid derivatives. The samples were subjected to stationary incubation at 37°C for 24 hours. Sample turbidity was determined by measuring absorption at 760 nm (HP 8453 UV-Visible Chemstation, Hewlett Packard).” left out

[5] = test system: Salmonella typhimurium ATCC 14028; test: MIC and MBC measurement; format: cell-based; settings: Salmonella enterica
Description: as §4, §5
as §1, with “In the sensitization experiments, erythromycin or novobiocin were added 15 minutes later than the cholic acid derivatives. The samples were subjected to stationary incubation at 37°C for 24 hours. Sample turbidity was determined by measuring absorption at 760 nm (HP 8453 UV-Visible Chemstation, Hewlett Packard).” left out

[6] = test system: Streptococcus pyogenes ATCC 19615; test: MIC and MBC measurement; format: cell-based; settings: ATCC19615, Table 10
Description: as §4, §5
as §1, with “In the sensitization experiments, erythromycin or novobiocin were added 15 minutes later than the cholic acid derivatives. The samples were subjected to stationary incubation at 37°C for 24 hours. Sample turbidity was determined by measuring absorption at 760 nm (HP 8453 UV-Visible Chemstation, Hewlett Packard).” left out

[7] = test system: Klebsiella pneumonia ATCC 13883; test: Sensitization to erythromycin, novobiocin or rifampicin (permeabilization, FIC); format: cell-based, Klebsiella pneumoniae
[8] = test system: Enterococcus faeculis ATCC 29212; test: MIC and MBC measurement; format: cell-based, Enterococcus faecalis; settings: ATCC29212
Description: as §4, §5
as §1, with “In the sensitization experiments, erythromycin or novobiocin were added 15 minutes later than the cholic acid derivatives. The samples were subjected to stationary incubation at 37°C for 24 hours. Sample turbidity was determined by measuring absorption at 760 nm (HP 8453 UV-Visible Chemstation, Hewlett Packard).” left out

[9] = test system: Escherichia coli ATCC 25922; settings: ATCC25922
Description: (§6) FICs can be performed by checkerboard titrations of compounds in one dimension of a microtiter plate, and of antibiotics in the other dimension, for example. The FIC is calculated by looking at the impact of one antibiotic on the MIC of the other and vice versa. […] As used herein, FIC can be determined as follows: FIC = (MIC(compound in combination))/(MIC(compound alone)) + (MIC(antibiotic in combination))/(MIC(antibiotic alone)) [formula]
(§7) Aliquots of 1 mL of the suspension were added to test tubes containing 1 mL TSB and incrementally varied concentrations of cholic acid derivatives and/or erythromycin or novobiocin. […] Additionally, an alliquot from each of the samples showing no measurable turbidity was subcultured on TSA plates (alliquots were diluted to provide fewer than 300 CFU). Colonies that grew on the subculture after overnight incubation were counted and the number of CFU/mL in the samples were calculated. The calculated values were compared to the number of CFU/mL in the original inoculum.
(§8) Concentrations of 0.5, 1.0 or 3.0 µg/mL of these antibiotics were used, and the concentrations of the cholic acid derivatives required to inhibit bacterial growth of Gram-negative strains were determined.

[10] = test system: Escherichia coli ATCC 25922; test: Sensitization to erythromycin, novobiocin or rifampicin (permeabilization, FIC)
Description: as §6, §7, §8

[11] = ATCC10798, Table 2, with erythromycin
[12] = ATCC25922, Table 4, E. coli (ATCC 25922)
[13] = ATCC25922, Table 10, Escherichia coli ATCC 25922
[14] = ATCC27853, Table 6, P. aureginosa (ATCC 27853)
[15] = ATCC27853, Table 10, Pseudomonas aeruginosa ATCC 27853
[16] = Table 9, Escherichia coli (ATCC 10798)
[17] = Table 13, with rifampicin (order of b151), Klebsiella pneumonia ATCC 13883
[18] = Table 13, with rifampicin (order of b151), Escherichia coli ATCC 25922

MIC [1, 12]: 2 µg/mL (≈ 2.52 µM)
MIC [1, 13]: 1.4 µg/mL (≈ 1.76 µM)
MIC [2]: 0.6 µg/mL (≈ 0.755 µM)
MIC [3]: 3 µg/mL (≈ 3.77 µM)
MIC [4, 14]: 6 µg/mL (≈ 7.55 µM)
MIC [4, 15]: 5.9 µg/mL (≈ 7.42 µM)
MIC [5]: 2.2 µg/mL (≈ 2.77 µM)
MIC [6]: 2 µg/mL (≈ 2.52 µM)
MIC [8]: 2.2 µg/mL (≈ 2.77 µM)
Structure (SMILES): C[C@H](CCCN(C)Cc1ccccc1)[C@H]1CC[C@H]2[C@@H]3[C@H](OCCCNC(=N)N)C[C@@H]4C[C@H](OCCCNC(=N)N)CC[C@]4(C)[C@H]3C[C@H](OCCCNC(=N)N)[C@]12C [Compound 5]
MBC (E. coli (ATCC 10798); [11]): 3 µg/mL
MBC (E. coli (ATCC 10798); ATCC10798, Table 3, with novobiocin): 4 µg/mL
concentration required to lower the MIC of erythromycin from 70 µg/mL to 1 µg/mL (E. coli (ATCC 10798); with erythromycin): 1 µg/mL
MBC [1, 12]: 4 µg/mL (≈ 5.03 µM)
MBC [1, 13]: 3.8 µg/mL (≈ 4.78 µM)
MBC [2]: 3.2 µg/mL (≈ 4.02 µM)
MBC [3]: 6.7 µg/mL (≈ 8.43 µM)
MBC [4, 14]: 15 µg/mL (≈ 18.9 µM)
MBC [4, 15]: 9.9 µg/mL (≈ 12.5 µM)
MBC [5]: 3.8 µg/mL (≈ 4.78 µM)
MBC [6]: 2.1 µg/mL (≈ 2.64 µM)
FIC ([7]; ATCC13883): 0.080
concentration required for bacterial growth inhibition ([7]; ATCC13883): 0.15 µg/mL
MBC [8]: 16 µg/mL (≈ 20.1 µM)
FIC [9]: 0.31
MBC ([10]; Escherichia coli, ATCC25922): 1.5 µg/mL
concentration required to lower the MIC of erythromycin from 60 µg/mL to 1 µg/mL ([10]; Table 5, E. coli (ATCC 25922), with erythromycin): 1.5 µg/mL

Structure (SMILES): C[C@H](CCCO)[C@H]1CC[C@H]2[C@@H]3[C@H](OCCCN)C[C@@H]4C[C@H](OCCCN)CC[C@]4(C)[C@H]3C[C@H](OCCCN)[C@]12C [Compound 10]
MBC (E. coli (ATCC 10798); [11]): 50 µg/mL
concentration required to lower the MIC of erythromycin from 70 µg/mL to 1 µg/mL (E. coli (ATCC 10798); with erythromycin): 2 µg/mL
(a) Concentration required to lower the MIC of erythromycin from 70 to 1 µg/mL (E. coli (ATCC 10798); [16]): 2.0 µg/mL
(b) MBC with 1 µg/mL erythromycin (E. coli (ATCC 10798); [16]): 50 µg/mL
(d) Concentration required to lower the MIC of novobiocin from >500 to 1 µg/mL (E. coli (ATCC 10798); [16]): 4.0 µg/mL
FIC^c (FIC values with erythromycin) (E. coli (ATCC 10798); [16]): 0.070
FIC^c (FIC values with novobiocin) (E. coli (ATCC 10798); [16]): 0.11
MBC [1, 13]: 40 µg/mL (≈ 70.7 µM)
MIC [1, 13]: 36 µg/mL (≈ 63.6 µM)
MBC [2]: 9.2 µg/mL (≈ 16.3 µM)
MIC [2]: 2 µg/mL (≈ 3.53 µM)
MBC [3]: 50 µg/mL (≈ 88.4 µM)
MIC [3]: 47 µg/mL (≈ 83.1 µM)
MIC [4, 14]: 23 µg/mL (≈ 40.6 µM)
MBC [4, 15]: 36 µg/mL (≈ 63.6 µM)
MIC [4, 15]: 21 µg/mL (≈ 37.1 µM)
MBC [5]: > 17 µg/mL
MIC [5]: 43 µg/mL (≈ 76 µM)
MBC [6]: 5.8 µg/mL (≈ 10.2 µM)
MIC [6]: 4.2 µg/mL (≈ 7.42 µM)
FIC ([7]; ATCC13883): 0.035
concentration required for bacterial growth inhibition ([7]; ATCC13883): 0.21 µg/mL
concentration required for bacterial growth inhibition ([7]; Table 12, with novobiocin (order of b151), Klebsiella pneumonia ATCC 13883): 0.73 µg/mL
FIC [7, 17]: 0.030
concentration required for bacterial growth inhibition [7, 17]: 0.16 µg/mL
MBC [8]: 19 µg/mL (≈ 33.6 µM)
MIC [8]: 3.3 µg/mL (≈ 5.83 µM)
concentration required for bacterial growth inhibition [9]: 0.30 µg/mL
FIC [10, 18]: 0.085
concentration required for bacterial growth inhibition [10, 18]: 0.70 µg/mL
